32 compounds from patent US11261201B2 (priority 2018, dated 2022) can be followed below.

For one test, the system named is A. baumannii. As to the kind of experiment: Gram negative MIC protocol (OD600, LB, 24 h). To be noted: Acinetobacter baumannii.
In another test the test system is H37RvMA. In words: Tuberculosis Alamar Blue/Resazurin assay (MIC). The class given is cell-based. To be noted: Mycobacterium tuberculosis, H37RV, read-out: WT H37Rv MTB Activity.
The test system of the next test is E. coli. In words: Gram negative MIC protocol (OD600, LB, 24 h). To be noted: Escherichia coli.
The mark [1] stands for this setting: read-out: MIC A. baumannii LB Media, A. baumannii, LB media, 24 h, OD600.
[2] abbreviates: read-out: MIC E. coli delta-TolC LB Media, E. coli delta-TolC, LB media, OD600.
The mark [3] stands for this setting: read-out: MIC WT E. coli LB Media, WT E. coli, LB media, OD600.
Where [4] appears, read: read-out: MIC E. coli delta-TolC LB Media, E. coli delta-TolC strain, LB media, 24 h, OD600.
[5] abbreviates: read-out: MIC WT E. coli LB Media, wild-type E. coli, LB media, 24 h, OD600.
[6] abbreviates: read-out: MIC A. baumannii LB Media.

The structures appear in SMILES notation. Values after ≈ are worked out from the molar mass of the structure shown. Where a name gives a salt, the structure may show the parent alone. Read-outs that look alike come from different tables or passages of the source.

Experimental for A. baumannii: (§1) Overnight bacterial cultures were grown in LB with no added antibiotics at 37° C. with shaking. A 1:1000 dilution of these cultures into LB was exposed to concentration gradients of compounds in 96-well plates (100 μL per well assay volume). Resulting plates were incubated at 37° C. for 24 h without shaking, and OD600 was measured at the end of the incubation. MICs were determined as the lowest concentrations at which OD600 remained at baseline.
Experimental for E. coli: as §1

Regarding `CNCc1cccc(CNCCC2CCCCC2)c1` [B420, 2-cyclohexyl-N-(3-((methylamino)methyl)benzyl)ethan-1-amine], the MIC in the test on A. baumannii (setting [1]), in the test on H37RvMA (WT H37Rv MTB), in the test on E. coli (setting [2]) and in the test with E. coli (setting [3]) was over 150 µM throughout.
For the compound `c1ccc(CNCC2CCc3ccccc32)cc1` (centres unmarked) [B213, N-benzyl-1-(2,3-dihydro-1H-inden-1-yl)methanamine hydrochloride], the MIC with A. baumannii (setting [1]) was over 300 µM; in the test on H37RvMA (WT H37Rv MTB), over 150 µM; in the test with E. coli (setting [4]), over 300 µM; with E. coli (setting [5]) it was over 300 µM.
With `CC(CC1CCCCC1)NCc1ccccc1OCC(=O)NC(=O)NC1CCCC1` (centres unmarked) [B317], the MIC was determined as 91 µM (≈ 37.8 µg/mL) in the test with A. baumannii (setting [1]), 55 µM (≈ 22.9 µg/mL) in the test on H37RvMA (WT H37Rv MTB), 3 µM (≈ 1.25 µg/mL) in the test on E. coli (setting [4]) and 91 µM (≈ 37.8 µg/mL) with E. coli (setting [5]).
Take `COc1ccc(C(C)C(C)NCc2ccccc2)cc1` (centres unmarked) [B28]: the MIC with A. baumannii (setting [1]), in the test with H37RvMA, with E. coli (setting [2]) and with E. coli (setting [3]) was over 150 µM throughout.
In the case of `CC(NCc1ccccc1)C1[C@H]2C[C@@H]3C[C@@H](C[C@H]1C3)C2` (some centres unmarked) [B191], the MIC with A. baumannii (setting [1]) was 300 µM (≈ 80.8 µg/mL); in the test on H37RvMA (WT H37Rv MTB), over 150 µM; in the test with E. coli (setting [2]), 300 µM (≈ 80.8 µg/mL); in the test on E. coli (setting [3]) it was over 300 µM.
Turning to `CC(CC1CCCCC1)NCc1ccccc1OCCCOCC(F)(F)F` (centres unmarked) [B304], the MIC in the test with A. baumannii (setting [1]) is over 150 µM; in the test on H37RvMA (WT H37Rv MTB), 91 µM (≈ 35.3 µg/mL); with E. coli (setting [4]), 3 µM (≈ 1.16 µg/mL); in the test on E. coli (setting [5]), over 150 µM.
Consider `CCCCCCCCNCc1ccccc1` [B150], for which the MIC in the test with A. baumannii (setting [1]), in the test on H37RvMA (WT H37Rv MTB), with E. coli (setting [2]) and in the test on E. coli (setting [3]) was over 150 µM throughout.
With `CC(CC1CCCCC1)NCc1ccccc1OCc1ccc(F)cc1` (centres unmarked) [B408, 1-cyclohexyl-N-(2-((4-fluorobenzyl)oxy)benzyl)propan-2-amine], the MIC in the test with A. baumannii (setting [1]) stood at 55 µM (≈ 19.6 µg/mL); in the test on H37RvMA (WT H37Rv MTB), 12.2 µM (≈ 4.34 µg/mL); in the test on E. coli (setting [2]), 2 µM (≈ 0.711 µg/mL); with E. coli (setting [3]) it was 55 µM (≈ 19.6 µg/mL).
Turning to `C1=Nc2c(cccc2CCNCc2ccccc2)C1` [B48], the MIC is 150 µM (≈ 37.6 µg/mL) in the test on A. baumannii (setting [6]), 150 µM (≈ 37.6 µg/mL) in the test on H37RvMA, over 150 µM in the test with E. coli (setting [2]) and over 150 µM in the test on E. coli (setting [3]).
As to `OCc1ccccc1CNCCC1CCCCC1` [B255], the MIC in the test with A. baumannii (setting [1]) is over 150 µM; in the test on H37RvMA (WT H37Rv MTB), over 150 µM; in the test on E. coli (setting [4]), 84 µM (≈ 20.8 µg/mL); with E. coli (setting [5]), over 150 µM.
Take `Fc1ccc(CNCCC2=CCCCC2)cc1` [B14]: the MIC with A. baumannii (setting [1]), in the test on H37RvMA (WT H37Rv MTB), in the test on E. coli (setting [2]) and in the test on E. coli (setting [3]) was over 150 µM in each case.
As to `c1ccc(CNCC2CCOc3ccccc32)cc1` (centres unmarked) [B23], the MIC with A. baumannii (setting [1]), with H37RvMA (WT H37Rv MTB), in the test on E. coli (setting [2]) and in the test on E. coli (setting [3]) was over 150 µM each time.
`COC(=O)CCCOc1ccccc1CNC(C)CC1CCCCC1` (centres unmarked) [B276]: the MIC in the test with A. baumannii (setting [1]) was over 150 µM; in the test with H37RvMA (WT H37Rv MTB) it was over 150 µM; in the test on E. coli (setting [4]), 4 µM (≈ 1.39 µg/mL); in the test with E. coli (setting [5]), over 150 µM.
Consider `CC(CC1CCCCC1)NCc1ccccc1OCC(=O)N1CCCC1` (centres unmarked) [B290], for which the MIC is over 150 µM in the test on A. baumannii (setting [1]), over 150 µM in the test with H37RvMA (WT H37Rv MTB), 33 µM (≈ 11.8 µg/mL) in the test with E. coli (setting [4]) and over 150 µM in the test with E. coli (setting [5]).
Turning to `CC(CC1CCCCC1)NCc1ccccc1OCC(=O)N1CCOC(C)C1` (centres unmarked) [B316], the MIC is over 150 µM in the test on A. baumannii (setting [1]), over 150 µM with H37RvMA (WT H37Rv MTB), 7 µM (≈ 2.72 µg/mL) with E. coli (setting [4]) and over 150 µM in the test on E. coli (setting [5]).
As to `COc1ccc(CC(C)(C)NCc2ccccc2)cc1` [B50], the MIC with A. baumannii (setting [6]), with H37RvMA, in the test with E. coli (setting [2]) and with E. coli (setting [3]) was over 150 µM throughout.
For `Cc1ccc(CNCCC2=CCCCC2)cc1` [B10, 2-(cyclohex-1-en-1-yl)-N-(4-methylbenzyl)ethan-1-amine], the MIC with A. baumannii (setting [1]), in the test with H37RvMA (WT H37Rv MTB), in the test with E. coli (setting [2]) and in the test on E. coli (setting [3]) was over 150 µM in each case.
Turning to `CCOCOc1ccccc1CNC(C)CC1CCCCC1` (centres unmarked) [B311], the MIC in the test with A. baumannii (setting [1]) was over 150 µM; in the test with H37RvMA (WT H37Rv MTB), over 150 µM; in the test with E. coli (setting [4]), 7 µM (≈ 2.14 µg/mL); with E. coli (setting [5]) it was over 150 µM.
On to `CC1(C)CCC2(CC2CNCc2ccccc2)c2ccccc21` (centres unmarked) [B109], for which the MIC in the test with A. baumannii (setting [1]) was 150 µM (≈ 45.8 µg/mL); with H37RvMA (WT H37Rv MTB) it was 55 µM (≈ 16.8 µg/mL); with E. coli (setting [2]), 91 µM (≈ 27.8 µg/mL); in the test with E. coli (setting [3]), over 150 µM.
Regarding `COC(=O)Cn1ccc2cccc(CNC(C)CC3CCCCC3)c21` (centres unmarked) [B435, methyl 2-(7-(((1-cyclohexylpropan-2-yl)amino)methyl)-1H-indol-1-yl)acetate hydrochloride], the MIC is over 150 µM with A. baumannii (setting [1]), over 150 µM with H37RvMA (WT H37Rv MTB), 150 µM in the test on E. coli (setting [2]) and over 150 µM in the test with E. coli (setting [3]).
On to `OC(CNCc1ccccc1)c1ccc2ccccc2c1` (centres unmarked) [B138], for which the MIC in the test with A. baumannii (setting [1]), with H37RvMA (WT H37Rv MTB), in the test with E. coli (setting [2]) and in the test on E. coli (setting [3]) was over 150 µM each time.
Regarding `OC1(CCNCc2ccccc2)CCCCC1` [B187], the MIC with A. baumannii (setting [1]) was over 300 µM; with H37RvMA (WT H37Rv MTB) it was over 150 µM; with E. coli (setting [2]), over 300 µM; with E. coli (setting [3]), over 300 µM.
Regarding `O=C1Cc2ccccc2CN1CCC1CCCCCC1` [B422, 2-(2-cycloheptylethyl)-1,4-dihydroisoquinolin-3(2H)-one], the MIC in the test on A. baumannii (setting [1]) is over 150 µM; with H37RvMA (WT H37Rv MTB) it was 2.5 µM (≈ 0.679 µg/mL); with E. coli (setting [2]), 150 µM (≈ 40.7 µg/mL); in the test on E. coli (setting [3]), over 150 µM.
Take `CC(NCc1ccccc1)C1CCCCCC1` (centres unmarked) [B101]: the MIC in the test on A. baumannii (setting [1]) is 150 µM (≈ 34.7 µg/mL); with H37RvMA (WT H37Rv MTB) it was over 150 µM; in the test with E. coli (setting [2]) it was 40 µM (≈ 9.26 µg/mL); with E. coli (setting [3]) it was 70 µM (≈ 16.2 µg/mL).
With `OB1OCc2cccc(CNCCC3CCCCC3)c21` [B339], the MIC in the test on A. baumannii (setting [1]) was over 300 µM; in the test on H37RvMA (WT H37Rv MTB), over 150 µM; with E. coli (setting [4]), 200 µM (≈ 54.6 µg/mL); in the test with E. coli (setting [5]), over 300 µM.
On to `CC(CC1CCCCC1)NCc1ccccc1OCc1ccccn1` (centres unmarked) [B295], for which the MIC is over 150 µM in the test with A. baumannii (setting [1]), 150 µM (≈ 50.8 µg/mL) with H37RvMA (WT H37Rv MTB), 4 µM (≈ 1.35 µg/mL) with E. coli (setting [4]) and over 150 µM in the test with E. coli (setting [5]).
Consider `CC(NCc1ccccc1)C1(C)CC1` (centres unmarked) [B149], for which the MIC in the test on A. baumannii (setting [1]), in the test on H37RvMA (WT H37Rv MTB), with E. coli (setting [2]) and in the test with E. coli (setting [3]) was over 150 µM throughout.
For the compound `NCc1ccccc1CNCCC1CCCCC1` [B254, N-(2-(aminomethyl)benzyl)-2-cyclohexylethanamine hydrochloride], the MIC in the test with A. baumannii (setting [1]), in the test with H37RvMA (WT H37Rv MTB), in the test with E. coli (setting [4]) and in the test with E. coli (setting [5]) was over 150 µM throughout.
With `CC(CC1CCCCC1)NCc1ccccc1OCC(=O)NC(C)C(=O)N(C)C` (centres unmarked) [B270], the MIC in the test with A. baumannii (setting [1]) was over 150 µM; in the test with H37RvMA (WT H37Rv MTB), over 150 µM; with E. coli (setting [4]), 20 µM (≈ 8.07 µg/mL); in the test with E. coli (setting [5]), over 150 µM.
Turning to `CCOc1ccccc1CNC(C)CC1CCCCC1` (centres unmarked) [B293], the MIC in the test on A. baumannii (setting [1]) is over 150 µM; in the test on H37RvMA (WT H37Rv MTB), over 150 µM; with E. coli (setting [4]), 4 µM (≈ 1.1 µg/mL); in the test on E. coli (setting [5]), 150 µM (≈ 41.3 µg/mL).
`CC(CC1CCCCC1)NCc1ccccc1CCCO` (centres unmarked) [B378, 3-(2-((1-cyclohexylpropan-2-ylamino)methyl)phenyl)propan-1-ol]: the MIC stood at 150 µM (≈ 43.4 µg/mL) with A. baumannii (setting [1]), 150 µM (≈ 43.4 µg/mL) in the test on H37RvMA (WT H37Rv MTB), 7 µM (≈ 2.03 µg/mL) with E. coli (setting [4]) and 91 µM (≈ 26.3 µg/mL) in the test on E. coli (setting [5]).
For the compound `CC(CC1CCCC1)NCc1ccccc1` (centres unmarked) [B38], the MIC was 150 µM (≈ 32.6 µg/mL) with A. baumannii (setting [6]), over 150 µM with H37RvMA, 90 µM (≈ 19.6 µg/mL) with E. coli (setting [2]) and 91 µM (≈ 19.8 µg/mL) in the test with E. coli (setting [3]).
